Marks after values point to notes of the source that are not given here.
How the values were obtained:
[1] = system: SW-480 colon adenocarcinoma cells; experiment: Apoptosis by DNA fragmentation (Cell Death Detection ELISA plus); assay type: cell-based, human; details: SW-480 cells, 48 hrs; for EC50: by software or estimated from effective concentration range; for DNA Fragmentation FS (100 μM): fold stimulation FS=ODmax/ODveh
Description: Apoptosis was also measured based on the amount of fragmented DNA contained in cell lysates. Briefly, SW-480 colon adenocarcinoma cells were plated in 96-well microtitre plates (“MTP”) at a density of 10K cells/well in 180 μl and incubated for 24 hrs. Cells were then treated with 20 μl aliquots of appropriately diluted compound, and allowed to incubate for an additional 48 hrs.
After the incubation, samples were prepared according to the following steps. The MTP was centrifuged (15 min., 1000 rpm) and the supernatant was carefully removed by fast inversion of the MTP. The cell pellents in each well were then resuspended in ^200 μl lysis buffer and incubated for 45 min. at room temperature to lyse the cells. The lysates were then centrifuged (15 min., 1000 rpm) and 20 μl aliquots of the supernatant (=cytoplasmic fraction) were transferred into the streptavidin coated MTP for analysis. Care was taken not to shake the lysed pellets in the MTP (=cell nucleii containing high molecular weight, unfragmented DNA). Samples were analyzed immediately, because storage at 4 C or −20 C reduces the ELISA-signals.
Samples were then processed according to a DNA fragmentation assay protocol, and dose-response curves were generated based on optical density readings. Quantification of DNA was done by a commercially available photometric enzyme-immunoassay manufactured by Mannheim-Boehringer under the name “Cell Death Detection ELISA^plus”. The assay is based on a quantitative sandwich-enzyme-immunoassay-principle using mouse monoclonal antibodies directed against DNA and histones, respectively. This allows the specific determination of mono and oligonucleosomes in the cytoplasmatic fraction of cell lysates. In brief, the assay procedure is as follows. The sample (cell-lysate, serum, culture-supernatant etc.) is placed into a streptavidin-coated MTP. Subsequently, a mixture of anti-histone-biotin and anti-DNA-POD are added and incubated for 2 hours. During the incubation period, the anti-histone antibody binds to the histone-component of the nucleosomes and simultaneously fixes the immunocomplex to the streptavidin-coated MTP via its biotinylation. Additionally, the anti-DNA-POD antibody reacts with the DNA component of the nucleosomes. After removal of unbound antibodies by a washing step, the amount of nucleosomes is quantified by the POD retained in the immunocomplex. POD is determined photometrically with ABTS® (2,2′-Azino-di[3-ethylbenzthiazolin-sulfonat])* as substrate.
Fold stimulation (FS=ODmax/ODveh), an indicator of apoptotic response, was determined for each compound tested. EC50 values were determined either specifically by data analysis software, or by estimates based on the effective concentration range of each compound (ECR=min. effective dose-min. dose to peak effect). These FS and EC50 values for the tested compounds are listed above in Table 6.

[2] = system: human colon carcinoma cell line, SW-480; experiment: Growth inhibition, Sulforhodamine B (SRB) protein binding assay; assay type: cell-based; details: SW-480 cell line, six days continuous exposure
In short: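 SW-480 cells at 1000 cells/well exposed continuously to compound for six days in RPMI with 5% FCS, 0.1% DMSO vehicle. Growth measured by sulforhodamine B staining and optical density relative to controls; IC50 read graphically from mean values, three wells per concentration.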

COX I = target: T1, COX I (Ovis aries, UniProt P05979); experiment: Cyclooxygenase (COX) inhibition, purified COX; assay type: biochemical; details: purified COX from ram seminal vesicles; for COX I % Inhibition (100 μM): 100 μM test compound, arachidonic acid 100 μM; for COX I % Inhibition (values marked *): values marked *: 1000 μM test compound
T1 construct: The COX was purified form ram seminal vesicles; from tissue; host or cells: ram seminal vesicles
T1 sequence (P05979 25-600): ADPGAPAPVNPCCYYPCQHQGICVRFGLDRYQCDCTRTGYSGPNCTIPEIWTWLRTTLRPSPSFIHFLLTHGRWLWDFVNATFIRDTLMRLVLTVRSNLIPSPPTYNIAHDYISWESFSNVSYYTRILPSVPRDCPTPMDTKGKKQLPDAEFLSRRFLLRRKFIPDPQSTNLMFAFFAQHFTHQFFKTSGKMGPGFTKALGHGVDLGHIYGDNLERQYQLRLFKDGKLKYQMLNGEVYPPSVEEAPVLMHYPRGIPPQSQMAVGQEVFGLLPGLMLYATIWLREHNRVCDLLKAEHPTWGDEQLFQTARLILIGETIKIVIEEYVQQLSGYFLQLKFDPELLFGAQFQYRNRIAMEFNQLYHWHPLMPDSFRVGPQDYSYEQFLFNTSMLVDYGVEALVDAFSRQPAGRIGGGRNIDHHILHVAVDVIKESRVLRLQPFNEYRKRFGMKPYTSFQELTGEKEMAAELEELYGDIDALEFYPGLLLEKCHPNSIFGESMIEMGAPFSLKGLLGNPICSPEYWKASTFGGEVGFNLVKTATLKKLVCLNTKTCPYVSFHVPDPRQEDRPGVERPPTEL
In short: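 Ram seminal vesicle COX, purified, was incubated 2.0 min at 37° C with 100 μM arachidonic acid with or without test compounds. Reactions stopped with TCA; activity read as absorbance at 530 nm.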

[3] = system: HT-29 human colon carcinoma cells; experiment: Apoptosis by morphology (acridine orange/ethidium bromide, condensed chromatin); assay type: cell-based; details: HT-29 cells
Description: Apoptosis was measured using an assay of cell death based on morphological characteristics of apoptotic cells (i.e., condensed chromatin). Drug preparation and cell culture conditions were the same as for the SRB assay described above, except that HT-29 human colon carcinoma cells were employed/Confluent cultures were established in 12.5 cm^2 flasks by plating 0.5×10^6 cells/flask. The cultures were assayed for apoptosis by fluorescent microscopy following labeling with acridine orange and ethidium bromide. Floating and attached cells were collected by trypsinization and washed three times in PBS. One ml aliquots were centrifuged (3 g). The pellet was resuspended in 25 μl media and 1 μl of a dye mixture containing 100 μg/ml acridine orange and 100 μg/ml ethidium bromide prepared in PBS and mixed gently. Ten μl of mixture was placed on a microscope slide and covered with a 22 mm^2 coverslip and examined under 40×dry objectives using epillumination and filter combination.
An observer blinded to the identity of the treatments scored at least 100 cells per sample. Apoptotic cells were identified by nuclear condensation of chromatin stained by the acridine orange or ethidium bromide.

Structure (SMILES) | EC50 [1] | DNA Fragmentation FS (100 μM) [1] | IC50 [2] | COX I % Inhibition (100 μM) (COX I) | Morphology % Apoptotic Cells (1 μM) [3] | COX I % Inhibition (values marked *) (COX I)
COc1cc(/C=C2/C(C)=C(CC(=O)NCc3ccccc3)c3cc(F)ccc32)cc(OC)c1OC [Example 1, (Z)-5-fluoro-2-methyl-1-(3,4,5-trimethoxybenzylidene)-3-(N-Benzyl)-indenylacetamide] | 50 nM | 4.6 | 40 nM | <25% | 73% | –
CCOC(=O)CN(Cc1ccccc1)C(=O)CC1=C(C)/C(=C/c2cc(OC)c(OC)c(OC)c2)c2ccc(F)cc21 [Example 31, (Z)-5-fluoro-2-methyl-1-(3,4,5 trimethoxybenzylidene)-3-(N-benzyl-N-glycinylethyl ester)-indenylacetamide] | > 10000 nM | <2 | 5200 nM | – | 30% | 30* %
COc1cc(OC)c(OC)cc1/C=C1/C(C)=C(CC(=O)NCc2ccccc2)c2cc(F)ccc21 [Example 58, (Z)-5-fluoro-2-methyl-1-(2,4,5-trimethoxybenzylidene)-3-(N-benzyl)-indenylacetamide] | 700 nM | 2.5 | 980 nM | <25% | 52% | –
COc1cc(/C=C2/C(C)=C(CC(=O)NCc3ccccc3F)c3cc(F)ccc32)cc(OC)c1OC [Example 32, (Z)-5-fluoro-2-methyl-1-(3,4,5-trimethoxybenzylidene)-3-(N-2-fluorobenzyl)-indenylacetamide] | 320 nM | 2.5 | 2200 nM | – | 55% | 58* %
COc1cc(/C=C2/C(C)=C(CC(=O)N[C@H](C)c3ccccc3)c3cc(F)ccc32)cc(OC)c1OC [Example 42, (Z)-5-fluoro-2-methyl-1-(3,4,5-trimethoxybenzylidene)-3-(N-(R)-1-phenethyl)-indenylacetamide] | 3000 nM | 3.8 | 690 nM | – | <20% | 49* %
COc1cc(/C=C2/C(C)=C(CC(=O)N(Cc3ccccc3)C(C)O)c3cc(F)ccc32)cc(OC)c1OC (stereo not drawn) [Example 47, (Z)-5-fluoro-2-methyl-1-(3,4,5-trimethoxybenzylidene)-3-(N-benzyl-N-(1-hydroxyethyl))-idenylacetamide] | 5700 nM | 4.4 | 4100 nM | – | 20% | 37* %
COc1cc(/C=C2/C(C)=C(CC(=O)NCc3ccccn3)c3cc(F)ccc32)cc(OC)c1OC [Example 48] | 500 nM | 2.5 | 500 nM | <25% | 63% | –
COc1cc(/C=C2/C(C)=C(CC(=O)N[C@H](O)Cc3ccccc3)c3cc(F)ccc32)cc(OC)c1OC [Example 45, (Z)-5-fluoro-2-methyl-1-(3,4,5-trimethoxybenzylidene)-3-(N-(R)-1-hydroxy-2-phenylethyl)-idenylacetamide] | > 10000 nM | 3.4 | > 10000 nM | – | 40% | 56* %
COc1cc(/C=C2/C(C)=C(CC(=O)NCCc3ccccc3)c3cc(F)ccc32)cc(OC)c1OC [Example 39, (Z)-5-fluoro-2-methyl-1-(3,4,5-trimethoxybenzylidene)-3-(N-2-phenylethyl)-indenylacetamide] | > 10000 nM | 2 | > 10000 nM | – | 31% | 59* %

From patent US6403831B1, “Substituted benzylidene indenyl formamides, acetamides and propionamides” (Cell Pathways, Inc., priority 1996, dated 2002)
